In the NIST ThermoML archive (doi:10.1016/j.fluid.2008.06.006):

Columns and labels:
[1] = refractive index (Na D-line) (dimensionless); conditions: 298.15 K; 101.33 kPa; Liquid; Standard Abbe refractometry
[2] = for vapor or sublimation pressure / mass density: Liquid; for mass density: 298.15 K, 101.33 kPa; for surface tension liquid-gas: 303.15 K, Ring tensiometer
[3] = xn = mol fraction of the nth substance listed; conditions: 303.15 K, Maximal bubble pressure

CC(C)=O [acetone]
Conditions | mass density [kg/m3] | refractive index | surface tension liquid-gas [mN/m]
[1] | – | 1.35732 | –
[2] | 784.23 | – | 22.45

[2], Ebulliometric method (Recirculating still)
Conditions | vapor or sublimation pressure [kPa]
297.65 K | 30.06
303.23 K | 38.04
307.39 K | 45.04
310.58 K | 51.08
314.35 K | 59.07
317.33 K | 66.06
320.08 K | 73.08
322.61 K | 80.07
324.96 K | 87.09
327.17 K | 94.07
329.33 K | 101.35

CC(C)=O [acetone] + C1CCCCC1
[3]
Conditions | surface tension liquid-gas [mN/m]
x1 = 0.047 | 23.85
x1 = 0.091 | 23.6
x1 = 0.185 | 23.1
x1 = 0.298 | 22.7
x1 = 0.403 | 22.4
x1 = 0.513 | 22.2
x1 = 0.621 | 22.1
x1 = 0.736 | 22.05
x1 = 0.842 | 22.15
x1 = 0.943 | 22.4

C1CCCCC1 [cyclohexane]
Conditions | mass density [kg/m3] | refractive index | surface tension liquid-gas [mN/m]
[1] | – | 1.42508 | –
[2] | 773.84 | – | 24.1

[2]
Conditions | vapor or sublimation pressure [kPa]
302.71 K | 16.01
312.45 K | 24.02
318.13 K | 30.03
324.4 K | 38.02
329.08 K | 45.03
332.63 K | 51.01
336.88 K | 59.01
340.25 K | 66.01
343.34 K | 73.02
346.22 K | 80.03
348.89 K | 87.02
351.4 K | 94.02
354.06 K | 101.9

CC(C)OC(C)C [diisopropyl ether]
Conditions | mass density [kg/m3] | refractive index | surface tension liquid-gas [mN/m]
[1] | – | 1.36644 | –
[2] | 718.34 | – | 16.7

[2], Ebulliometric method (Recirculating still)
Conditions | vapor or sublimation pressure [kPa]
293.25 K | 16.02
302.42 K | 24.02
307.79 K | 30.02
313.73 K | 38.02
318.15 K | 45.02
321.52 K | 51.01
325.55 K | 59.01
328.74 K | 66.01
331.67 K | 73.01
334.38 K | 80.01
336.91 K | 87.01

CC(C)OC(C)C [diisopropyl ether] + C1CCCCC1
[3]
Conditions | surface tension liquid-gas [mN/m]
x1 = 0.049 | 23.3
x1 = 0.098 | 22.7
x1 = 0.199 | 21.4
x1 = 0.301 | 20.7
x1 = 0.403 | 19.75
x1 = 0.509 | 19
x1 = 0.622 | 18.3
x1 = 0.727 | 17.8
x1 = 0.837 | 17.3
x1 = 0.936 | 16.9
x1 = 0.967 | 16.8

CC(C)OC(C)C [diisopropyl ether] + CC(C)=O
[3]
Conditions | surface tension liquid-gas [mN/m]
x2 = 0.046 | 16.75
x2 = 0.089 | 16.8
x2 = 0.187 | 16.95
x2 = 0.29 | 17.3
x2 = 0.39 | 17.65
x2 = 0.499 | 18.05
x2 = 0.61 | 18.6
x2 = 0.722 | 19.2
x2 = 0.829 | 20.15
x2 = 0.93 | 21.3
x2 = 0.973 | 21.94
